# From patent publication EP3502234B1, “ANAEROBIC AMMONIUM OXIDATION WITH PLANKTONIC CELLS IN A CONTINUOUS OR SEMI-CONTINUOUS STIRRED-TANK REACTOR” (priority 2017, dated 2019)
# How the values were obtained:
# [1] = test system: anammox activity of reactor effluent; assay: Incubations of reactor effluent with effectors; anammox activity from headspace gas production rate; type: cell-based, "Ca. Kuenenia stuttgartiensis"; details: for IC50: 30°C
# Procedure: 60 mL nitrogen-flushed glass bottles were anoxically filled with 50 mL reactor effluent and closed with butyl rubber septa and aluminum crimp caps. Effectors were anoxically added with sterile syringes through the septa or directly added to the bottles as powder. Except for the experiment in which nitrite was varied, 3 mM nitrite was added at time 0. Each bottle was directly connected to a MPX5100DP pressure sensor via a 0.41 mm Luer Lock needle. All sensors were electrically connected to a LabJack converter for data reading and storage. Pressure sensors were read every 3 seconds. In total, twelve such bottles were set up for each experiment, allowing the simultaneous testing of five different effector concentrations in duplicate plus two bottles as negative controls without effector.
# Experiments were incubated for 24 hours after which 3 mL air was injected into each bottle for calibration of the pressure sensor readings. Gas production rates were calculated as mL per day across 1,000 consecutive data points (3,000 seconds). […] The same time frame was chosen for all twelve bottles in one experiment to calculate anammox activities from the slopes.
# For that the reactor effluent was incubated in closed bottles and monitored the pressure build-up in the headspace over time. […] Legend: the number before the dash indicates the chloramphenicol concentration in mg L^-1, the number behind the dash indicates the number of the replicate. (A) Gas production; (B) Gas production rate calculated in a window of 1,000 consecutive data points (equivalent to 3,000 seconds).
# [2] = test system: anammox activity of "Ca. Kuenenia stuttgartiensis "; details: 1 g L^-1 chloramphenicol; cited from earlier work
# [3] = test system: anammox activity of "Ca. Kuenenia stuttgartiensis "; details: 20 mg L^-1 chloramphenicol, sequencing batch reactor, after 4 days; cited from earlier work
# [4] = test system: "Ca. Kuenenia stuttgartiensis"; details: previous reports; cited from earlier work
# anammox activity = assay: Semi-CSTR reactor operation under critical conditions (pulse addition, reactor collapse); type: cell-based, "Ca. Kuenenia stuttgartiensis"; details: pulse of 0.2 mM Na2S added to the reactor
# Procedure: The reactor effluent was collected in anoxic 2-liter bottles and stored in the dark at 4°C to be used later for inhibitor tests (see below) or as inoculum when the reactor collapsed. During one-year operation under experimental conditions, the reactor intentionally collapsed three times under three different critical conditions: 1) after the reactor was incubated for 24 h at 38.6°C without feeding nitrite, 2) after a pulse of 0.2 mM Na2S was added, and 3) after a pulse of 65 µM FeCl2 was added. […] After such reactor collapses, the reactor could be reproducibly regenerated with the stored eluent bottles. The activity in the effluent bottles was recovered, as judged from pressure production rates, within only 2 days when a bottle was warmed up to room temperature, spiked with 3 mM nitrite and incubated at 30°C. Effluent could be stored at 4°C for at least three months without startup delay.
# [5] = reactor effluent, gas production rate normalized to controls without effector
compound,measurement,setting,value
[Cl-].[Na+] [NaCl],inhibition,[1]; 270 mM salt,75%
same,salt concentrations that start to inhibit anammox activity,[1]; reactor effluent,120 to 270 mM
same,inhibition,[1]; salt concentrations up to 120 mM,No apparent inhibition
O=C(N[C@H](CO)[C@H](O)c1ccc([N+](=O)[O-])cc1)C(Cl)Cl [chloramphenicol],inhibition at 30 µg/mL,[1]; chloramphenicol 30 mg L^-1,57%
same,IC50,"[1]; reactor effluent, 3 mM nitrite",19 µg/mL
same,inhibition,[2],no apparent inhibition
same,drop in reactor efficiency,[3],25%
same,drop in specific anammox activity,[3],75%
CN(C)c1ccc2nc3ccc(=[N+](C)C)cc-3sc2c1 [methylene blue],inhibition,[1]; 100 µg L^-1 methylene blue,86%
same,inhibition of anammox activity,[1]; methylene blue 10 µg L^-1,no apparent inhibition
same,IC50,"[1]; reactor effluent, 3 mM nitrite",0.053 µg/mL
"O=N[O-].[Na+] [nitrite, NaNO2]",inhibition,[1]; nitrite at 6 mM,24%
same,inhibition,"[1]; nitrite at 6 mM, as worded in the discussion",severe inhibition
same,IC50,[1]; [5],9.6 mM
same,tolerant to nitrite,[4],13 to 25 mM
"[Na+].[Na+].[S-2] [sulfide, Na2S]",IC50,"[1]; reactor effluent, 3 mM nitrite",0.005 mM
same,inhibition of anammox activity,[1]; sulfide at 5 µM,severely inhibited
same,effect on the reactor,anammox activity,complete loss of the anammox activity
phosphate,anammox activity higher than in the controls at 1.5 mM,[1]; 6.5 mM phosphate,11%
same,anammox activity preserved,[1]; highest tested concentration of 51.5 mM phosphate,65%
same,increase of anammox activity,[1]; phosphate concentration increased from 1.5 mM to 3.5 mM,16%
same,IC50,[1]; [5],> 51.5 mM
